Measured values: US20090239841A1, “Diaryl Ureas as CB1 Antagonists” (priority 2004, published 2009)
Where two headings read alike, the source gives them in different places.

Target: T1, hCB1 (Homo sapiens, UniProt P21554)
T1 construct: made in house; host or cells: Sf9 insect cells (baculovirus), P2 membranes
Assay: Agonist-induced GTP binding (GTPγ35S) assay at CB1, Example 8
Format: biochemical
Conditions: IC50 at CB1, GTP binding with 1 nM CP55,940, read-out: IC50
Source text: As noted above, compounds provided herein are CB1 antagonists. Certain such compounds are non-competitive CB1 antagonists. In addition, or alternatively, certain compounds provided herein display CB1 specificity. CB1 antagonist activity may be confirmed using an agonist-induced GTP binding assay, such as the assay described in Example 8. Such assays employ a CB1-containing cell membrane preparation (e.g., a preparation of membranes of insect cells that recombinantly express CB1) to determine the effect of a test compound on CB1 agonist-induced GTP binding to CB1. Briefly, a first cell membrane preparation comprising CB1 is contacted with: (i) labeled GTP; (ii) a CB1 agonist; and (iii) a test compound to yield a test membrane preparation. Simultaneously, or in either order, a second cell membrane preparation comprising CB1 is contacted with: (i) labeled GTP; and (ii) a CB1 agonist to yield a control membrane preparation. The labeled GTP is preferably GTPγ^35S; a representative CB1 agonist is CP55,940. Such contact is performed under conditions that are suitable for GTP binding to CB1, such as the conditions described in Example 8. The concentrations of labeled GTP and CB1 agonist used are generally concentrations that are sufficient to result in a detectable increase in the amount of labeled GTP bound to the membrane preparation in the presence of CB1 agonist. Such concentrations may be determined by routine experimentation; representative suitable concentrations are provided in Example 8. Generally, a range of test compound concentrations is used (e.g., ranging from 10^−10M to 10^−5M).
After sufficient contact (e.g., incubation) to allow GTP binding to the membrane preparations, a signal that corresponds to (represents) the amount of bound, labeled GTP is detected (typically, unbound labeled GTP is first removed via a washing step). In other words, simultaneously or in either order: (i) a test signal that represents an amount of bound, labeled GTP in the test membrane preparation is detected; and (ii) a control signal that represents an amount of bound, labeled GTP in the control membrane preparation is detected. The nature of the signal detected is determined by the type of label used. For example, if the GTP is radioactively labeled, the signal detected is radioactive decay (e.g., via liquid scintillation spectrometry). The CB1 antagonist activity of the test compound is then determined by comparing the test signal with the control signal.
This assay can also be used to detect partial agonism mediated by antagonist compounds. A compound being analyzed in this assay is referred to herein as a “test compound.” Agonist-stimulated GTP binding activity is measured as follows: Four independent baculoviral stocks (one directing the expression of hCB1 and three directing the expression of each of the three subunits of a heterotrimeric G-protein) are used to infect a culture of Sf9 cells as described in Example 5.
Agonist-stimulated GTP binding on purified membranes (as described in Example 6) is initially assessed using the cannabinoid agonist CP55,940 to ascertain that the receptor/G-protein-alpha-beta-gamma combination(s) yield a functional response as measured by GTP binding.
P2 membranes are resuspended by Dounce homogenization (tight pestle) in GTP binding assay buffer (50 mM Tris pH 7.4, 120 mM NaCl, 5 mM MgCl2, 2 mM EGTA, 0.1% BSA, 0.1 mM bacitracin, 10 KIU/mL aprotinin, 5 μM GDP) and added to reaction tubes at a concentration of 10 μg protein/reaction tube. After adding increasing doses of the agonist CP55,940 at concentrations ranging from 10^−12 M to 10^−6 M, reactions are initiated by the addition of […] GTPγ^35S. In competition experiments, non-radiolabeled test compounds are added to separate assays at concentrations ranging from 10^−10 M to 10^−5 M along with 1 nM CP55,940 to yield a final volume of 0.25 mL. […]

T1 sequence (P21554 whole entry): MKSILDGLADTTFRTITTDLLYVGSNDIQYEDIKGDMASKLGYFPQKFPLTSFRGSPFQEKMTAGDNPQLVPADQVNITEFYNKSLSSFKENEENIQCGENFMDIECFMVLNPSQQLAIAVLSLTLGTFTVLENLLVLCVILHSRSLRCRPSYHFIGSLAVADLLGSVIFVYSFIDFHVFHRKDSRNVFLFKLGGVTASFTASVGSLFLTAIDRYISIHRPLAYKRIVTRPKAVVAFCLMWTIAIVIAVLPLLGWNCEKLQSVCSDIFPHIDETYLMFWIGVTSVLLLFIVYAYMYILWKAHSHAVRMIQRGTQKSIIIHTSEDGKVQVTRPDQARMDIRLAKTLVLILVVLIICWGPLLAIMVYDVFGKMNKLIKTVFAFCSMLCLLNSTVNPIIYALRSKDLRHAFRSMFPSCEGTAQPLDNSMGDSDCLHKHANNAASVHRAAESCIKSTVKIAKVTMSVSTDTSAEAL

**Q.** With `O=C(Nc1ccc(OC(F)F)cc1)Nc1ccc(OC(F)F)cc1` [Compound 4, N,N′-bis[4-(difluoromethoxy)phenyl]urea] as the compound, how does the IC50 (Table I) read?
**A.** < 2000 nM

**Q.** Which IC50 (Table I) does the source give for `CCc1ccc(NC(=O)Nc2ccc(OC(F)F)cc2)cc1` [Compound 5, N-[4-(difluoromethoxy)phenyl]-N′-(4-ethylphenyl)urea] here?
**A.** < 2000 nM

**Q.** Which IC50 (Table I) does the source give for `COc1cc(NC(=O)Nc2ccc(OC(F)F)cc2)ccc1OC(F)F` [Compound 6, N-[4-(difluoromethoxy)-3-methoxyphenyl]-N′-[4-(difluoromethoxy)phenyl]urea] here?
**A.** < 2000 nM

**Q.** How did the IC50 (Table I) turn out when `N#Cc1cccc(NC(=O)Nc2ccc(OC(F)F)cc2)c1` [Compound 8, N-(3-cyanophenyl)-N′-[4-(difluoromethoxy)phenyl]urea] was run?
**A.** < 2000 nM

**Q.** For `CCOc1cccc(NC(=O)Nc2ccc(OC(F)F)cc2)c1` [Compound 9, N-[4-(difluoromethoxy)phenyl]-N′-(3-ethoxyphenyl)urea], which IC50 (Table I) is on record?
**A.** < 2000 nM

**Q.** Which IC50 (Table I) does the source give for `Cc1nccc(-c2cccc(NC(=O)Nc3ccc(OC(F)F)cc3)c2)n1` [Compound 10, N-[4-(difluoromethoxy)phenyl]-N′-[3-(2-methylpyrimidin-4-yl)phenyl]urea] here?
**A.** < 2000 nM

**Q.** For `CCc1cccc(NC(=O)Nc2ccc(OC(F)F)cc2)c1` [Compound 11, N-[4-(difluoromethoxy)phenyl]-N′-(3-ethylphenyl)urea], which IC50 (Table I) is on record?
**A.** < 2000 nM

**Q.** With `CC(=O)c1cccc(NC(=O)Nc2ccc(OC(F)F)cc2)c1` [Compound 12, N-(3-acetylphenyl)-N′-[4-(difluoromethoxy)phenyl]urea] as the compound, how does the IC50 (Table I) read?
**A.** < 2000 nM

**Q.** Which IC50 (Table I) does the source give for `O=C(Nc1ccc(OC(F)F)cc1)Nc1cccc(OCCO)c1` [Compound 14, N-[4-(difluoromethoxy)phenyl]-N′-[3-(2-hydroxyethoxy)phenyl]urea] here?
**A.** < 2000 nM

**Q.** With `O=C(Nc1ccc(OC(F)F)cc1)Nc1cccc(Cl)c1` [Compound 15, N-(3-chlorophenyl)-N′-[4-(difluoromethoxy)phenyl]urea] as the compound, how does the IC50 (Table I) read?
**A.** < 2000 nM

**Q.** With `O=C(Nc1ccc(OC(F)F)cc1)Nc1cccc(F)c1` [Compound 16, N-[4-(difluoromethoxy)phenyl]-N′-(3-fluorophenyl)urea] as the compound, how does the IC50 (Table I) read?
**A.** < 2000 nM

**Q.** For `O=C(Nc1ccc(OC(F)F)cc1)Nc1cccc(O)c1` [Compound 17, N-[4-(difluoromethoxy)phenyl]-N′-(3-hydroxyphenyl)urea], which IC50 (Table I) is on record?
**A.** < 2000 nM

**Q.** How did the IC50 (Table I) turn out when `Cc1cccc(NC(=O)Nc2ccc(OC(F)F)cc2)c1` [Compound 18, N-[4-(difluoromethoxy)phenyl]-N′-(3-methylphenyl)urea] was run?
**A.** < 2000 nM

**Q.** `CCCc1ccc(NC(=O)Nc2ccc(CC)cc2)cc1` [Compound 20, N-(4-ethylphenyl)-N′-(4-propylphenyl)urea] was tested. Which IC50 (Table I) did it give?
**A.** < 2000 nM

**Q.** Which IC50 (Table I) does the source give for `CCc1ccc(NC(=O)Nc2ccc(CC)cc2)cc1` [Compound 21, N,N′-bis(4-ethylphenyl)urea] here?
**A.** < 2000 nM

**Q.** How did the IC50 (Table I) turn out when `CCc1ccc(NC(=O)Nc2ccc(C(C)=O)cc2)cc1` [Compound 22, N-(4-acetylphenyl)-N′-(4-ethylphenyl)urea] was run?
**A.** < 2000 nM

**Q.** For `CCc1ccc(NC(=O)Nc2cccc(OC(C)C)c2)cc1` [Compound 23, N-(4-ethylphenyl)-N′-(3-isopropoxyphenyl)urea], which IC50 (Table I) is on record?
**A.** < 2000 nM

**Q.** Which IC50 (Table I) does the source give for `CCCOc1ccc(NC(=O)Nc2ccc(CC)cc2)cc1` [Compound 24, N-(4-ethylphenyl)-N′-(4-propoxyphenyl)urea] here?
**A.** < 2000 nM

**Q.** `CCc1ccc(NC(=O)Nc2ccc(Cl)cc2)cc1` [Compound 25, N-(4-chlorophenyl)-N′-(4-ethylphenyl)urea] was tested. Which IC50 (Table I) did it give?
**A.** < 2000 nM

**Q.** How did the IC50 (Table I) turn out when `CCc1ccc(NC(=O)Nc2ccc(C#N)cc2)cc1` [Compound 27, N-(4-cyanophenyl)-N′-(4-ethylphenyl)urea] was run?
**A.** < 2000 nM

**Q.** For `CCc1ccc(NC(=O)Nc2ccc(CO)cc2)cc1` [Compound 28, N-(4-ethylphenyl)-N′-[4-(hydroxymethyl)phenyl]urea], which IC50 (Table I) is on record?
**A.** < 2000 nM

**Q.** Which IC50 (Table I) does the source give for `CCc1ccc(NC(=O)Nc2ccc(O)cc2)cc1` [Compound 29, N-(4-ethylphenyl)-N′-(4-hydroxyphenyl)urea] here?
**A.** < 2000 nM

**Q.** With `CCc1ccc(NC(=O)Nc2ccccc2)cc1` [Compound 35, N-(4-ethylphenyl)-N′-phenylurea] as the compound, how does the IC50 (Table I) read?
**A.** < 2000 nM

**Q.** How did the IC50 (Table I) turn out when `CCCCc1ccc(NC(=O)Nc2ccc(C)cc2)cc1` [Compound 37, N-(4-butylphenyl)-N′-(4-methylphenyl)urea] was run?
**A.** < 2000 nM

**Q.** How did the IC50 (Table I) turn out when `Cc1ccc(NC(=O)Nc2cccc(OC(C)C)c2)cc1` [Compound 38, N-(3-isopropoxyphenyl)-N′-(4-methylphenyl)urea] was run?
**A.** < 2000 nM

**Q.** With `CCCc1ccc(NC(=O)Nc2ccc(C)cc2)cc1` [Compound 39, N-(4-methylphenyl)-N′-(4-propylphenyl)urea] as the compound, how does the IC50 (Table I) read?
**A.** < 2000 nM

**Q.** `CCCOc1ccc(NC(=O)Nc2ccc(C)cc2)cc1` [Compound 40, N-(4-methylphenyl)-N′-(4-propoxyphenyl)urea] was tested. Which IC50 (Table I) did it give?
**A.** < 2000 nM

**Q.** `Cc1ccc(NC(=O)Nc2ccc(OC(F)F)cc2)cc1` [Compound 41, N-[4-(difluoromethoxy)phenyl]-N′-(4-methylphenyl)urea] was tested. Which IC50 (Table I) did it give?
**A.** < 2000 nM

**Q.** With `CCc1ccc(NC(=O)Nc2ccc(C)cc2)cc1` [Compound 42, N-(4-ethylphenyl)-N′-(4-methylphenyl)urea] as the compound, how does the IC50 (Table I) read?
**A.** < 2000 nM

**Q.** How did the IC50 (Table I) turn out when `Cc1ccc(NC(=O)Nc2ccc(Cl)cc2)cc1` [Compound 43, N-(4-chlorophenyl)-N′-(4-methylphenyl)urea] was run?
**A.** < 2000 nM

**Q.** For `CCCOc1ccc(NC(=O)Nc2ccccc2)cc1` [Compound 44, N-phenyl-N′-(4-propoxyphenyl)urea], which IC50 (Table I) is on record?
**A.** < 2000 nM

**Q.** `CCCc1ccc(NC(=O)Nc2ccccc2)cc1` [Compound 45, N-phenyl-N′-(4-propylphenyl)urea] was tested. Which IC50 (Table I) did it give?
**A.** < 2000 nM

**Q.** For `CCCCc1ccc(NC(=O)Nc2ccccc2)cc1` [Compound 46, N-(4-butylphenyl)-N′-phenylurea], which IC50 (Table I) is on record?
**A.** < 2000 nM

**Q.** With `CC(C)c1ccc(NC(=O)Nc2ccccc2)cc1` [Compound 47, N-(4-isopropylphenyl)-N′-phenylurea] as the compound, how does the IC50 (Table I) read?
**A.** < 2000 nM

**Q.** Which IC50 (Table I) does the source give for `O=C(Nc1ccccc1)Nc1ccc(OC(F)F)cc1` [Compound 48, N-[4-(difluoromethoxy)phenyl]-N′-phenylurea] here?
**A.** < 2000 nM

**Q.** `CC(C)Oc1cccc(NC(=O)Nc2ccccc2)c1` [Compound 49, N-(3-isopropoxyphenyl)-N′-phenylurea] was tested. Which IC50 (Table I) did it give?
**A.** < 2000 nM

**Q.** How did the IC50 (Table I) turn out when `CCc1ccc(NC(=O)Nc2ccc(OC(F)F)c(OC)c2)cc1` [Compound 53, N-[4-(difluoromethoxy)-3-methoxyphenyl]-N′-(4-ethylphenyl)urea] was run?
**A.** < 2000 nM

**Q.** `COc1cc(NC(=O)Nc2ccc(OC(F)F)c(OC)c2)ccc1OC(F)F` [Compound 54, N,N′-bis[4-(difluoromethoxy)-3-methoxyphenyl]urea] was tested. Which IC50 (Table I) did it give?
**A.** < 2000 nM

**Q.** With `CCc1ccc(NC(=O)Nc2cccc(C#N)c2)cc1` [Compound 55, N-(3-cyanophenyl)-N′-(4-ethylphenyl)urea] as the compound, how does the IC50 (Table I) read?
**A.** < 2000 nM

**Q.** How did the IC50 (Table I) turn out when `CCc1ccc(NC(=O)Nc2cccc(C(C)=O)c2)cc1` [Compound 56, N-(3-acetylphenyl)-N′-(4-ethylphenyl)urea] was run?
**A.** < 2000 nM

**Q.** For `CCc1ccc(NC(=O)Nc2cccc(OC)c2)cc1` [Compound 57, N-(4-ethylphenyl)-N′-(3-methoxyphenyl)urea], which IC50 (Table I) is on record?
**A.** < 2000 nM

**Q.** How did the IC50 (Table I) turn out when `CCc1ccc(NC(=O)Nc2cccc(F)c2)cc1` [Compound 58, N-(4-ethylphenyl)-N′-(3-fluorophenyl)urea] was run?
**A.** < 2000 nM

**Q.** With `CCc1ccc(NC(=O)Nc2cccc(C)c2)cc1` [Compound 59, N-(4-ethylphenyl)-N′-(3-methylphenyl)urea] as the compound, how does the IC50 (Table I) read?
**A.** < 2000 nM

**Q.** `COc1cc(NC(=O)Nc2ccc(C)cc2)ccc1OC(F)F` [Compound 61, N-[4-(difluoromethoxy)-3-methoxyphenyl]-N′-(4-methylphenyl)urea] was tested. Which IC50 (Table II) did it give?
**A.** < 2000 nM

**Q.** For `O=C(Nc1ccc(OC(F)F)cc1)Nc1cccc(-c2ccccn2)c1` [Compound 62, N-[4-(difluoromethoxy)phenyl]-N′-(3-pyridin-2-ylphenyl)urea], which IC50 (Table II) is on record?
**A.** < 2000 nM
